ChEMBL document CHEMBL1140271, “Synthesis and antibacterial activity of 5-methoxy- and 5-hydroxy-6-fluoro-1,8-naphthyridone-3-carboxylic acid derivatives” (Bioorg Med Chem Lett, 2005)
≈ marks a conversion by molar mass, not a printed value.

Legend:
Haemophilus influenzae = experiment: Minimum inhibitory concentration against Haemophilus influenzae GYR 1435 gram-negative strain; assay type: functional
Streptococcus pneumoniae [1] = experiment: Minimum inhibitory concentration against Streptococcus pneumoniae 7257 Quinolone-resistant strain; assay type: functional
Streptococcus pneumoniae [2] = experiment: Inhibitory concentration against Streptococcus pneumoniae translation; assay type: functional, organism-based

Row | Structure (SMILES) | MIC (Haemophilus influenzae) | MIC (Streptococcus pneumoniae [1]) | IC50 (Streptococcus pneumoniae [2])
1 | NC1CCN(c2nc3ncc(C(=O)O)c(O)c3cc2F)C1 (centres undefined) | 4 µg/mL (≈ 13.7 µM) | 32 µg/mL (≈ 109 µM) | 7 µM
2 | O=C(O)c1cnc2nc(N3CCC3)c(F)c(O)c2c1O | 64 µg/mL (≈ 229 µM) | 64 µg/mL (≈ 229 µM) | 200 µM
3 | O=C(O)c1cnc2nc(N3CCCC3)c(F)cc2c1O | 1 µg/mL (≈ 3.61 µM) | 4 µg/mL (≈ 14.4 µM) | 10 µM
4 | O=C(O)c1cnc2nc(N3CCC3)c(F)cc2c1O | 1 µg/mL (≈ 3.8 µM) | 4 µg/mL (≈ 15.2 µM) | 5 µM
5 | COc1c(F)c(N2CCC2)nc2ncc(C(=O)O)c(O)c12 | 32 µg/mL (≈ 109 µM) | 8 µg/mL (≈ 27.3 µM) | 14 µM
6 | O=C(O)c1cnc2nc(N3CCCC3)c(F)c(O)c2c1O | 4 µg/mL (≈ 13.6 µM) | 4 µg/mL (≈ 13.6 µM) | 51 µM
7 | C[C@H]1COc2c(N3CCN(C)CC3)c(F)cc3c(=O)c(C(=O)O)cn1c23.C[C@H]1COc2c(N3CCN(C)CC3)c(F)cc3c(=O)c(C(=O)O)cn1c23.O [LEVOFLOXACIN] | 0.015 µg/mL |  | > 100 µM
8 | COc1c(F)c(N2CCCC2)nc2ncc(C(=O)O)c(O)c12 | 64 µg/mL (≈ 208 µM) | 32 µg/mL (≈ 104 µM) | 32 µM
9 | NC1CCN(c2nc3ncc(C(=O)O)c(O)c3c(O)c2F)C1 (centres undefined) | 32 µg/mL (≈ 104 µM) | 64 µg/mL (≈ 208 µM) | 17 µM
10 | COc1c(F)c(N2CCC(N)C2)nc2ncc(C(=O)O)c(O)c12 (centres undefined) | 64 µg/mL (≈ 199 µM) | 64 µg/mL (≈ 199 µM) | 4 µM
